The target in experiment [1] is T1, vWF-GPIb interaction (Homo sapiens, UniProt P04275+P07359).
T1 construct: endogenous in cells; host or cells: fresh or formalin-fixed platelets
Briefly: Ristocetin-induced binding of 125I-labeled vWF to fresh or formalin-fixed platelets. The note with it: peptides tested individually; read-out: IC50, inhibition of binding of vWF to the GPIb of platelets by synthetic peptides. As for the experimental part:
The assay system is based on the use of ^125 I-labeled vWF and fresh or formalin-fixed platelets; ristocetin was used to induce the binding of vWF to GPIb. After incubation for 30 minutes at 37° C., without stirring, separation of bound platelet from free vWF ligand was achieved by centrifugation through 20% sucrose in Tyrode buffer, followed by measurement of the bound radioactivity as described in Ruggeri et al., J. Clin. Invest., 72, 1-12 (1983). Nonspecific binding was evaluated for selected points by measuring the binding in the presence of a 40-fold excess of unlabeled vWF. Binding isotherms were evaluated by Scatchard-type analysis to determine binding parameters (including the estimate of nonspecific binding) using the computer-assisted program "Ligand" as described in Munson, Methods Enzymol., 92, 542-576 (1983).

The next experiment deals with T2, GPIb-IX (Homo sapiens).
T2 construct: which utilizes washed platelets fixed with formaldehyde; endogenous in cells; host or cells: washed platelets fixed with formaldehyde
Briefly: Ristocetin-dependent 125I-vWF binding to formaldehyde-fixed washed platelets (Examples 5-7). As to conditions: 125I-vWF 2 μg/ml; read-out: concentration that inhibits 50% of ristocetin-induced binding of vWF.

The target in another experiment is GPIb-IX (Homo sapiens, UniProt P04275). In words: biochemical.
The target of experiment [2] is T1, vWF-GPIb interaction. Briefly: Inhibition of ristocetin-induced binding of vWF to formalin-fixed platelets (Example 1). The note with it: 125I-vWF 5 μg/ml, ristocetin 1.0 mg/ml. As for the experimental part:
To test the inhibitory activity of the peptides of the present invention, formalin-fixed platelets were used at a final concentration of 1×10^11 /l. Assayed peptides were then added at various concentrations. One third final volume of vWF-deficient plasma was then added followed by ^125 I-vWF at a final concentration of 5 μg/ml. Ristocetin was then added at a concentration of 1.0 mg/ml. After incubation for o30 minutes at room temperature, bound and free vWF ligand were separated by centrifuging 50 μl of the mixture through 300 μl of 20% sucrose at 12,000 g for 4 minutes. The platelet pellet was then separated from the rest of the mixture to determine platelet-bound radioactivity. Nonspecific binding was defined as the residual binding of ^125 I-vWF in the presence of a 50-fold excess of unlabeled vWF but in the absence of any peptides.
Percent inhibition with a given peptide was calculated by dividing the specific cpm […].

Experiment [3] concerns the target T1, vWF-GPIb interaction. Briefly: Inhibition of asialo-vWF binding to fresh platelets (Example 2). As to conditions: 125I-asialo-vWF 5 μg/ml. The method, then:
Fresh platelets were prepared by drawing blood into a solution of 11 mM trisodium citrate and 2 mM EDTA. Platelet-rich plasma was then prepared by differential centrifugation. The platelet count was then adjusted to 1×10^11 /l. Peptides were then added to various concentrations and ^125 I-asialo-vWF was then added at a final concentration of 5 μg/ml. After incubation for 30 minutes at room temperature, bound and free vWF ligand were separated by centrifuging 50 μl of the mixture through 300 μl of 20% sucrose at 12,000 g for 4 minutes. The platelet pellet was then separated from the rest of the mixture to determine platelet-bound radioactivity. Non-specific binding was defined as the residual binding of ^125 I- asialo-vWF in the presence of a 50-fold excess of unlabeled vWF but in the absence of any peptides.
Percent inhibition with a given peptide was calculated by dividing the specific cpm obtained when various concentrations of peptide were added by the specific cpm in the absence of peptide.

Where no end group is shown, it is not given here. A value given as a limit tells only on which side of the number the result lay.

T1 sequence (P07359 17-652): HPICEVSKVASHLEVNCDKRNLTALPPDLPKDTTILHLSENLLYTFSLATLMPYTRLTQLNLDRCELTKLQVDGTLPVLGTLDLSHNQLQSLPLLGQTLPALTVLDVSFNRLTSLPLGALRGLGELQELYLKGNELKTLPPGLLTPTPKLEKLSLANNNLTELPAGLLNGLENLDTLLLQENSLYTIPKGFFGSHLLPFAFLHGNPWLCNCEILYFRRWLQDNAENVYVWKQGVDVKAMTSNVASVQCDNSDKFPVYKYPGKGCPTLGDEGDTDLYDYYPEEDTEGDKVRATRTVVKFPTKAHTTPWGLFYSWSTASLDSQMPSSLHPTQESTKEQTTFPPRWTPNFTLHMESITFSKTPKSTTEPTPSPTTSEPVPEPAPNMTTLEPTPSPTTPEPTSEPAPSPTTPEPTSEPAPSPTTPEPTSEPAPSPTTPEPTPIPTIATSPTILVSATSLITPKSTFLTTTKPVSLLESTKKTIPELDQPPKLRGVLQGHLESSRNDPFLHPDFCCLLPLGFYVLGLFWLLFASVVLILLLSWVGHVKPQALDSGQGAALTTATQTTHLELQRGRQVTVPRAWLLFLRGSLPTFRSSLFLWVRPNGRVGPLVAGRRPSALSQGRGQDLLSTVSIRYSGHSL
T1 sequence (P04275 764-2813 limits assumed): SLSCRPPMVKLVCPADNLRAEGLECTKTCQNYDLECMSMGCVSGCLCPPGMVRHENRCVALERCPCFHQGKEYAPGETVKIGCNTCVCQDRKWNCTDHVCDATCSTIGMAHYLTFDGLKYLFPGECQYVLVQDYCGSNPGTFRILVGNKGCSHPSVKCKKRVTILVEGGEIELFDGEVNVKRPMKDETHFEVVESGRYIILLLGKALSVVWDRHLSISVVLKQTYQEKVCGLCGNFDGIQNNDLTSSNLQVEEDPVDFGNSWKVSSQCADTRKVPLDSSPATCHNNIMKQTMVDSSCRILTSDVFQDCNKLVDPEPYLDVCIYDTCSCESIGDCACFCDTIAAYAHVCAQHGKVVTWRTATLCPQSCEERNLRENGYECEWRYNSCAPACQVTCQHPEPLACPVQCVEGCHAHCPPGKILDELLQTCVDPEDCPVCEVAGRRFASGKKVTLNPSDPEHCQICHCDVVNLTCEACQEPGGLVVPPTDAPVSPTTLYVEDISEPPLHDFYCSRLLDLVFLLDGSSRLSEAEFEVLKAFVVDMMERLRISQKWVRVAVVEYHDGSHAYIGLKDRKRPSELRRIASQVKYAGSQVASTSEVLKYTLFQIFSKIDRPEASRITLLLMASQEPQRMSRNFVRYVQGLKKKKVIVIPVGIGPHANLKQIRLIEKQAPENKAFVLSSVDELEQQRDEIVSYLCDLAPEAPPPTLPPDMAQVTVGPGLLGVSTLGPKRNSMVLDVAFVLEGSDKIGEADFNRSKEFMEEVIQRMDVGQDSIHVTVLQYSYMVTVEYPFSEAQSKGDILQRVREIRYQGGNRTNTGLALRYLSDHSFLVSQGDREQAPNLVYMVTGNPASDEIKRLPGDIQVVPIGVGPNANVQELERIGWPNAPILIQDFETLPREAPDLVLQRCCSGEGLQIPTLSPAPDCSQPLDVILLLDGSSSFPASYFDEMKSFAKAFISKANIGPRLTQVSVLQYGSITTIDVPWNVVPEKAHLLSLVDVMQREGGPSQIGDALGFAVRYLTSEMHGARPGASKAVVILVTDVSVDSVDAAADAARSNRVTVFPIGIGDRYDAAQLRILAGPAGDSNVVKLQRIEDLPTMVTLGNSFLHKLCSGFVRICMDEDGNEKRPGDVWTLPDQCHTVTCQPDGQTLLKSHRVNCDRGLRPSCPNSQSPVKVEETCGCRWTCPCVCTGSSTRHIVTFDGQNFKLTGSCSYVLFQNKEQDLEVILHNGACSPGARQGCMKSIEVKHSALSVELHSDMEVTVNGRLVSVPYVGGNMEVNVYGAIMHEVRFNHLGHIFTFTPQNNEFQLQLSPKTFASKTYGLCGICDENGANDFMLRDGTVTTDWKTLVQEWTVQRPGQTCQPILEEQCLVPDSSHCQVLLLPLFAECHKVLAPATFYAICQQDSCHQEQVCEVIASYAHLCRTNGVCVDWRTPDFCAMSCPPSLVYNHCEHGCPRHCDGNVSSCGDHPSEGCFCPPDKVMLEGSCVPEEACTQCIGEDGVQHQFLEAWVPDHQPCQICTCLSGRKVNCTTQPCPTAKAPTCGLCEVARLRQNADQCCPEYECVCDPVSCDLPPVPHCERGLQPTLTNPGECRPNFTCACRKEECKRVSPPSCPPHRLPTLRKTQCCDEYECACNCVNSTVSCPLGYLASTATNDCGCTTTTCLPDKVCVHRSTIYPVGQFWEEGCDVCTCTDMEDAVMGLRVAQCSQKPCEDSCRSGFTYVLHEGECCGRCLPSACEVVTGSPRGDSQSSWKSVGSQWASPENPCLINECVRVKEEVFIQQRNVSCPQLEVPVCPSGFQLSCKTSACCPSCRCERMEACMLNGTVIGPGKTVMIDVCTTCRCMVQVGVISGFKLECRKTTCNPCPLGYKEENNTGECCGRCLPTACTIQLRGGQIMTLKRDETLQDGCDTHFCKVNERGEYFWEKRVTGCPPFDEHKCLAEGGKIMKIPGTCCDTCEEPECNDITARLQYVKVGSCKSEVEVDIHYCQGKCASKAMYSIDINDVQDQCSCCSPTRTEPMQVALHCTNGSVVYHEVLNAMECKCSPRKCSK
T2 sequence (P04275 764-2813 limits assumed): as above
GPIb-IX, sequence (P04275 764-2813 limits assumed): as above
Description for GPIb-IX (Homo sapiens): Percent inhibition of binding of vWF to platelets was measured using I^125 labelled vWF prepared according to the methods of Ruggeri et al. See also DeMarco et al., J. Clin. Invest., 68, 321-328 (1981). Binding of vWF to platelets induced by ristocetin and/or botrocetin (and inhibition thereof) was measured according to the method of MacFarlane et al., Thromb. Diath. Haemorrh., 34, 306-308 (1975) which utilizes washed platelets fixed with formaldehyde. […] Each peptide, used at a final concentration of 500 μmol/l with a ^125 I-vWF concentration of 2 μg/ml, is identified by the same numeral used in the top part of the figure.
Further experiments were performed with a constant ^125 I-vWF concentration of 2 μg/ml and varying peptide concentration, as indicated on the FIG. 2 abscissa. […] One hundred percent binding was that measured in the presence of Hepes buffer instead of peptide.
Binding inhibition experiments were conducted analogous to those in Example 6 using an I^125 -vWF concentration of 2 μg/ml.

Turning to DKRNLTALPPDLPKDTT, the IC50 at vWF-GPIb interaction [1] is not above 500 µM.

Regarding EEDTE [EEDTE], the IC50 on vWF-GPIb interaction [1] was more than 500 µM.

For EEDTEGDKVRATRTV, the IC50 at vWF-GPIb interaction [1] was not above 500 µM.

Consider GDTDLYDYYPEEDTE [peptide 25], for which the IC50 on vWF-GPIb interaction [1] is not above 500 µM; on GPIb-IX (Homo sapiens), 420 µM; at GPIb-IX it was 530 µM.

Turning to KQGVDVKAMTSNVAS, the IC50 at vWF-GPIb interaction [1] was not above 500 µM.

For KRKRKRKRKR [(KR)5], the IC50 at vWF-GPIb interaction [2] was 13 µM; on vWF-GPIb interaction [3], 1.7 µM.

With KRKRKRKRKRKRKR [(KR)7], the IC50 on vWF-GPIb interaction [2] amounted to 9 µM.

As to NLTALPPDLPKDTTI, on vWF-GPIb interaction [1], the IC50 is not above 500 µM.

On to PGLLTPTPKLEKLSL, for which the IC50 on vWF-GPIb interaction [1] was not above 500 µM.

As for PPDLPKDTT, the IC50 on vWF-GPIb interaction [1] was more than 500 µM.

For PPDLPKDTTILHLSE, the IC50 on vWF-GPIb interaction [1] was not above 500 µM.

For the origin of these results see US5340727A, “GPIbα fragments and recombinant DNA expression vectors” (The Scripps Research Institute, priority 1990, dated 1994).
